Data from patent publication US4861788A, “Antibacterial 1-normon-2-yl-heterocyclic compounds” (Beecham Group plc, priority 1983, dated 1989).
Converted amounts (≈) assume the structure as drawn. Where two headings read alike, the source gives them in different places.

Assays:
M. hyopneumoniae UCD 1 = assay: MIC against Mycoplasma in vitro (Friis broth with agarose); assay type: cell-based; details: Mesomycoplasma hyopneumoniae, UCD1, 144 h
M. hyopneumoniae JF 435 = assay: as above; assay type: cell-based; details: Mesomycoplasma hyopneumoniae, JF435, 144 h
M. hyorhinis ATCC 23234 = assay: as above; assay type: cell-based; details: Mesomycoplasma hyorhinis, ATCC23234, 144 h
Strep. uberis SPU1 = assay: MIC against veterinary bacteria in vitro (Diagnostic Sensitivity Test Agar); details: Streptococcus uberis, SPU1, 18 h
Method: (§2) The activity of the normonyl derivatives of the Examples against various veterinarily important bacteria, was assayed in vitro using two-fold serial dilutions in Diagnostic Sensitivity Test Agar inoculated with 10^4 organisms.

Past. multocida PA2 = assay: as above; details: Pasteurella multocida, PA2, 18 h
Method: as §2

[1] = test system: M. hyopneumoniae J2206/183^b; assay: MIC against Mycoplasma in vitro (Friis broth with agarose); assay type: cell-based; details: Mesomycoplasma hyopneumoniae, 144 h
M. pneumoniae ATCC 15492 = assay: as above; assay type: cell-based; details: Mycoplasmoides pneumoniae, ATCC15492, 144 h
[2] = test system: M. hyopneumoniae NCTC 101101; assay: as above; assay type: cell-based; details: Mesomycoplasma hyopneumoniae, NCTC101101, 144 h
M. hyorhinis ATCC 25021 = assay: as above; assay type: cell-based; details: Mesomycoplasma hyorhinis, ATCC25021, 144 h
M. gallisepticum S6 = assay: as above; assay type: cell-based; details: Mycoplasmoides gallisepticum
[3] = test system: Erysipelothrix rhusiopathiae NCTC 8163; assay: MIC against veterinary bacteria in vitro (Diagnostic Sensitivity Test Agar); details: NCTC8163, 18 h
Method: as §2

M. hyopneumoniae Str. 11 = assay: MIC against Mycoplasma in vitro (Friis broth with agarose); assay type: cell-based; details: Mesomycoplasma hyopneumoniae
[4] = test system: Staph. aureus 152 (pen. sens); assay: MIC against veterinary bacteria in vitro (Diagnostic Sensitivity Test Agar); details: Staphylococcus aureus, 18 h
Method: as §2

Bord. bronchiseptica B08 = assay: as above; details: Bordetella bronchiseptica, B08, 18 h
Method: as §2

Past. multocida PA1 = assay: as above; details: Pasteurella multocida, PA1, 18 h
Method: as §2

M. bovis NCTC 10131 = assay: microbe, parasite or virus in culture; assay type: cell-based; details: NCTC10131, 144 h
P. mirabilis 889 = assay: MIC against human bacteria in vitro (nutrient agar, chocolated horse blood); assay type: cell-based; details: Proteus mirabilis; human; P. mirabilis 889; 18 hours at 37° C; read-out: MIC
Method: (§1) The activity of the normonyl derivaties of the Examples against various bacteria which are important in diseases of humans, was assayed in vitro using serial dilutions in nurient agar with 5% chocolated horse blood.

Strep. spp. 64/848-C = assay: as above; assay type: cell-based; details: human; Strep. spp. 64/848-C; 18 hours at 37° C; read-out: MIC
Method: as §1

Sarcina lutea 8340 = assay: as above; assay type: cell-based; details: Micrococcus luteus; human; Sarcina lutea 8340; 18 hours at 37° C; read-out: MIC
Method: as §1

Staph. aureus Russell = assay: as above; assay type: cell-based; details: Staphylococcus aureus; human; Staph. aureus Russell; 18 hours at 37° C; read-out: MIC
Method: as §1

E. coli NCTC 10418 = assay: as above; assay type: cell-based; details: Escherichia coli, NCTC10418; human; E. coli NCTC 10418; 18 hours at 37° C; read-out: MIC
Method: as §1

[5] = test system: Pasteurella multocida 1633; assay: as above; assay type: cell-based; details: human; Pasteurella multocida 1633; 18 hours at 37° C; read-out: MIC
Method: as §1

Strep. faecalis I = assay: as above; assay type: cell-based; details: Enterococcus faecalis; human; Strep. faecalis I; 18 hours at 37° C; read-out: MIC
Method: as §1

Bacillus subtilis 6633 = assay: as above; assay type: cell-based; details: human; Bacillus subtilis 6633; 18 hours at 37° C; read-out: MIC
Method: as §1

Strep. agalactiae 2788-B = assay: as above; assay type: cell-based; details: Streptococcus agalactiae; human; Strep. agalactiae 2788-B; 18 hours at 37° C; read-out: MIC
Method: as §1

[6] = test system: Ps. aeruginosa NCTC 10662; assay: as above; assay type: cell-based; details: Pseudomonas aeruginosa, NCTC10662; human; Ps. aeruginosa NCTC 10662; 18 hours at 37° C; read-out: MIC
Method: as §1

Staph. aureus W2827 = assay: as above; assay type: cell-based; details: Staphylococcus aureus; human; Staph. aureus W2827; 18 hours at 37° C; read-out: MIC
Method: as §1

E. coli E1 = assay: MIC against veterinary bacteria in vitro (Diagnostic Sensitivity Test Agar); details: Escherichia coli, E1, 18 h
Method: as §2

[7] = test system: Corynebacterium pyogenes CY1; assay: as above; details: CY1, 18 h
Method: as §2

[8] = test system: M. hyopneumoniae ATCC 25095; assay: MIC against Mycoplasma in vitro (Friis broth with agarose); assay type: cell-based; details: Mesomycoplasma hyopneumoniae, ATCC25095, 144 h; M. hyopneumoniae ATCC 25095; 6 days at 37° C; read-out: MIC
M. hyopneumoniae MS 16 = assay: as above; assay type: cell-based; details: Mesomycoplasma hyopneumoniae, MS16, 144 h; M. hyopneumoniae MS 16; 6 days at 37° C; read-out: MIC
[9] = M. pneumoniae ATCC 15492, 6 days at 37° C, read-out: MIC
[10] = 144 h, M. gallisepticum S6, 6 days at 37° C, read-out: MIC
[11] = M. hyopneumoniae UCD 1, 6 days at 37° C, read-out: MIC
[12] = M. hyopneumoniae JF 435, 6 days at 37° C, read-out: MIC
[13] = M. hyorhinis ATCC 23234, 6 days at 37° C, read-out: MIC
[14] = M. hyopneumoniae J2206/183^b, 6 days at 37° C, read-out: MIC
[15] = M. hyopneumoniae NCTC 101101, 6 days at 37° C, read-out: MIC
[16] = M. hyorhinis ATCC 25021, 6 days at 37° C, read-out: MIC
[17] = 144 h, M. hyopneumoniae Str. 11, 6 days at 37° C, read-out: MIC

Structure (SMILES) | MIC (Strep. uberis SPU1) [µg/mL] | MIC (Past. multocida PA2) [µg/mL] | MIC (M. pneumoniae ATCC 15492; [9]) [µg/mL] | MIC (M. gallisepticum S6; [10]) [µg/mL] | MIC [3] [µg/mL] | MIC [4] [µg/mL] | MIC (Bord. bronchiseptica B08) [µg/mL] | MIC (Past. multocida PA1) [µg/mL] | MIC (M. bovis NCTC 10131) [µg/mL] | MIC (Strep. spp. 64/848-C) [µg/mL] | MIC (Staph. aureus Russell) [µg/mL] | MIC (E. coli NCTC 10418) [µg/mL] | MIC [5] [µg/mL] | MIC (Strep. faecalis I) [µg/mL] | MIC (Bacillus subtilis 6633) [µg/mL] | MIC (Strep. agalactiae 2788-B) [µg/mL] | MIC [6] [µg/mL] | MIC (Staph. aureus W2827) [µg/mL] | MIC (E. coli E1) [µg/mL] | MIC [7] [µg/mL] | other results
CC(=Cc1nnc(-c2ccc(N(C)C)cc2)o1)CC1OCC(CC2OC2C(C)C(C)O)C(O)C1O (centres unmarked) [Example 10, 2-(4-Dimethylaminophenyl)-5-(1-normon-2-yl)-1,3,4-oxadiazole A] | 20 (≈ 41 µM) | 5 (≈ 10.3 µM) | 10 (≈ 20.5 µM) | > 10 | 40 (≈ 82 µM) | 5 (≈ 10.3 µM) | > 80 | 40 (≈ 82 µM) | 0.25 (≈ 0.513 µM) | 16 (≈ 32.8 µM) | 4 (≈ 8.2 µM) | > 128 | 16 (≈ 32.8 µM) | > 128 | 2 (≈ 4.1 µM) | 16 (≈ 32.8 µM) | > 128 | 4 (≈ 8.2 µM) | > 80 | > 80 | MIC (M. hyopneumoniae UCD 1): 2.5 µg/mL (≈ 5.13 µM); MIC (M. hyopneumoniae JF 435): 1 µg/mL (≈ 2.05 µM); MIC (M. hyorhinis ATCC 23234): 1 µg/mL (≈ 2.05 µM); MIC [1]: 5 µg/mL (≈ 10.3 µM); MIC [2]: 5 µg/mL (≈ 10.3 µM); MIC (M. hyorhinis ATCC 25021): 1 µg/mL (≈ 2.05 µM); MIC (M. hyopneumoniae Str. 11; STR.11, 144 h): 1 µg/mL (≈ 2.05 µM); MIC (P. mirabilis 889): > 128 µg/mL; MIC (Sarcina lutea 8340): > 128 µg/mL
COC(=O)CCCCCCCCn1nnnc1C=C(C)CC1OCC(CC2OC2C(C)C(C)O)C(O)C1O (centres unmarked) [Example 13, 1-(8-Methoxycarbonyloctyl)-5-(1-normon-2-yl)-1H-tetrazole A] | 40 (≈ 74.3 µM) | 5 (≈ 9.28 µM) | > 10 | > 10 | > 80 | 20 (≈ 37.1 µM) | > 80 | 40 (≈ 74.3 µM) | 1 (≈ 1.86 µM) | > 64 | > 64 | > 64 | 64 (≈ 119 µM) | > 64 | > 64 | > 64 | > 64 | > 64 | > 80 | > 80 | MIC (M. hyopneumoniae UCD 1; [11]): > 10 µg/mL; MIC (M. hyopneumoniae JF 435; [12]): > 10 µg/mL; MIC (M. hyorhinis ATCC 23234; [13]): > 10 µg/mL; MIC [8]: > 10 µg/mL; MIC [1, 14]: > 10 µg/mL; MIC [2, 15]: > 10 µg/mL; MIC (M. hyorhinis ATCC 25021; [16]): > 10 µg/mL; MIC (M. hyopneumoniae Str. 11; [17]): > 10 µg/mL; MIC (M. hyopneumoniae MS 16): > 10 µg/mL; MIC (P. mirabilis 889): > 64 µg/mL
CC(=Cc1nnc(-c2ccco2)o1)CC1OCC(CC2OC2C(C)C(C)O)C(O)C1O (centres unmarked) [Example 8, 2-(2-Furyl)-5-(1-normon-2-yl)-1,3,4-oxadiazole A] | 10 (≈ 23 µM) | 0.625 (≈ 1.44 µM) | > 10 | > 10 | > 80 | 40 (≈ 92.1 µM) | > 80 | 1.25 (≈ 2.88 µM) | 0.1 (≈ 0.23 µM) | 32 (≈ 73.6 µM) | 64 (≈ 147 µM) | > 128 | 1 (≈ 2.3 µM) | > 128 | 4 (≈ 9.21 µM) | 32 (≈ 73.6 µM) | > 128 | 32 (≈ 73.6 µM) | > 80 | > 80 | MIC (M. hyopneumoniae UCD 1; [11]): 5 µg/mL (≈ 11.5 µM); MIC (M. hyopneumoniae JF 435; [12]): 10 µg/mL (≈ 23 µM); MIC (M. hyorhinis ATCC 23234; [13]): 2.5 µg/mL (≈ 5.75 µM); MIC [1, 14]: 10 µg/mL (≈ 23 µM); MIC [2, 15]: 10 µg/mL (≈ 23 µM); MIC (M. hyorhinis ATCC 25021; [16]): 2.5 µg/mL (≈ 5.75 µM); MIC (M. hyopneumoniae Str. 11; [17]): 5 µg/mL (≈ 11.5 µM); MIC (P. mirabilis 889): > 128 µg/mL; MIC (Sarcina lutea 8340): > 128 µg/mL
CC(=Cc1nnc(-c2ccncc2)o1)CC1OCC(CC2OC2C(C)C(C)O)C(O)C1O (centres unmarked) [Example 7, 2-(1-Normon-2-yl)-5-(4-pyridyl)-1,3,4-oxadiazole A] | 2.5 (≈ 5.61 µM) | 0.625 (≈ 1.4 µM) | – | – | 80 (≈ 180 µM) | 10 (≈ 22.4 µM) | > 80 | 2.5 (≈ 5.61 µM) | 0.025 (≈ 0.0561 µM) | 8 (≈ 18 µM) | 32 (≈ 71.8 µM) | > 128 | > 128 | > 128 | 2 (≈ 4.49 µM) | 8 (≈ 18 µM) | > 128 | 32 (≈ 71.8 µM) | > 80 | > 80 | MIC (M. hyopneumoniae UCD 1; [11]): 1 µg/mL (≈ 2.24 µM); MIC (M. hyopneumoniae JF 435; [12]): 2.5 µg/mL (≈ 5.61 µM); MIC (M. hyorhinis ATCC 23234; [13]): 0.5 µg/mL (≈ 1.12 µM); MIC [1, 14]: 2.5 µg/mL (≈ 5.61 µM); MIC (M. pneumoniae ATCC 15492): > 10 µg/mL; MIC [2, 15]: 2.5 µg/mL (≈ 5.61 µM); MIC (M. hyorhinis ATCC 25021; [16]): 0.5 µg/mL (≈ 1.12 µM); MIC (M. gallisepticum S6; S6, 144 h): > 10 µg/mL; MIC (M. hyopneumoniae Str. 11; [17]): 0.5 µg/mL (≈ 1.12 µM); MIC (Sarcina lutea 8340): > 128 µg/mL
